From PubChem BioAssay (NCI)
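1) Cells in 96-well plates. 2) Compound, 48 h, 5 concentrations. 3) Linear interpolation between surrounding doses. 4) Unreached endpoint = highest concentration. The concentration for full growth arrest is given as TGI.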 Where a SMILES comes first, the peptide text is derived from it. [ ]: non-standard residue; d: D form. The star is where a group is joined. Phe(4-NO2) = N[CH](Cc1ccc([N+](=O)[O-])cc1)C(=O)O; Boc = CC(C)(C)OC(=O)*

Tests used:
Assay in all cases: NCI anticancer screen, dose series, 48 h
CCRF-CEM leukemia = tested on: CCRF-CEM leukemia
EKVX NSCLC = tested on: EKVX NSCLC
U251 CNS = tested on: U251 CNS
SNB-75 CNS = tested on: SNB-75 CNS
HOP-62 NSCLC = tested on: HOP-62 NSCLC
UO-31 renal = tested on: UO-31 renal
NCI-H460 lung = tested on: NCI-H460 lung
IGROV1 ovarian = tested on: IGROV1 ovarian
NCI-H522 lung = tested on: NCI-H522 lung
A498 renal = tested on: A498 renal
MCF7 breast = tested on: MCF7 breast
HT29 colon = tested on: HT29 colon
BT-549 breast = tested on: BT-549 breast
786-0 renal = tested on: 786-0 renal
OVCAR-8 ovarian = tested on: OVCAR-8 ovarian
MALME-3M melanoma = tested on: MALME-3M melanoma
HS 578T breast = tested on: HS 578T breast
TK-10 renal = tested on: TK-10 renal
T-47D breast = tested on: T-47D breast

| SMILES | TGI (CCRF-CEM leukemia) [µM] | TGI (EKVX NSCLC) [µM] | TGI (U251 CNS) [µM] | TGI (SNB-75 CNS) [µM] | TGI (HOP-62 NSCLC) [µM] | TGI (UO-31 renal) [µM] | TGI (NCI-H460 lung) [µM] | TGI (IGROV1 ovarian) [µM] | TGI (NCI-H522 lung) [µM] | TGI (A498 renal) [µM] | TGI (MCF7 breast) [µM] | TGI (HT29 colon) [µM] | TGI (BT-549 breast) [µM] | TGI (786-0 renal) [µM] | TGI (OVCAR-8 ovarian) [µM] | TGI (MALME-3M melanoma) [µM] | TGI (HS 578T breast) [µM] | TGI (TK-10 renal) [µM] | TGI (T-47D breast) [µM] |
| --- | --- | --- | --- | --- | --- | --- | --- | --- | --- | --- | --- | --- | --- | --- | --- | --- | --- | --- | --- |
| Cc1c/c(=N/NC(=O)c2ccncc2)n2nc(N)sc2n1 | > 100 | > 100 | > 100 | > 100 | > 100 | > 100 | > 100 | > 100 | > 100 | > 100 | > 100 | > 100 | > 100 | > 100 | > 100 |  |  |  |  |
| NNc1ncc2c(n1)-c1ccccc1OC2 | > 100 | > 100 | > 100 | > 100 | > 100 | > 100 | > 100 | > 100 | > 100 |  | > 100 | > 100 |  | > 100 | > 100 | > 100 | > 100 | > 100 |  |
| N#CC1=C(N)OC(c2cccc([N+](=O)[O-])c2)C1(C#N)C#N (configuration not stated) |  | 64.6 | > 100 | 24.7 | 57 | 32.8 |  | 35.4 | 28.8 | 36.7 | 48.5 | 37.2 |  | 28.1 | 92.8 | 49.3 | > 100 | 33.8 | 45.1 |
| C[N+](C)(C)CCOP(=O)([O-])OCCNC(=O)c1ccc2ccccc2c1 | > 100 | > 100 | > 100 | > 100 | > 100 | > 100 |  | > 100 | > 100 |  | > 100 | > 100 | > 100 | > 100 | > 100 | > 100 |  | > 100 | > 100 |
| Cc1nc2ccc(N)cc2[nH]c1=O | > 100 | > 100 | > 100 |  | > 100 | > 100 | > 100 | > 100 |  | > 100 |  |  |  | > 100 | > 100 | > 100 |  | > 100 |  |
| O=c1c2cc(S(=O)(=O)Nc3ccc(Cl)cc3Cl)ccc2ncn1NS(=O)(=O)c1cccc2ccccc12 | 47.7 | > 100 | > 100 | > 100 | > 100 | 62.3 | > 100 | > 100 | > 100 |  | > 100 | > 100 | 80.6 | > 100 | > 100 | > 100 | > 100 | > 100 |  |
| O=c1oc2c/c(=C\c3ccccn3)c(=O)c3cccc1c3-2 | > 100 | > 100 |  |  | 39.2 |  | > 100 | > 100 | > 100 |  | > 100 | > 100 |  | > 100 | 54.4 | > 100 | > 100 | > 100 | > 100 |
| CCn1c(O)c(C=Nc2ccccc2)s/c1=N/Nc1nc(-c2ccc(O)c(O)c2)cs1 | 57 | > 100 | > 100 | > 100 | > 100 | > 100 | > 100 | > 100 | 98.2 |  | > 100 | > 100 |  | > 100 | > 100 | > 100 | > 100 | > 100 |  |
| CCOC(=O)CC(=O)CSc1c(-c2ccccc2)c(=O)n(-c2ccccc2)c(=S)n1-c1ccccc1 | > 100 | > 100 | > 100 | > 100 | > 100 | > 100 | > 100 | > 100 | > 100 | > 100 | > 100 | > 100 |  | > 100 | > 100 | > 100 | > 100 | > 100 | > 100 |
| CCOC(=O)C(NC(=O)c1ccccc1)(Nc1ccc(S(=O)(=O)Nc2cc(C)nc(C)n2)cc1)C(F)(F)F (configuration not stated) | > 100 | > 100 | > 100 | > 100 | > 100 | > 100 | > 100 | > 100 | > 100 | > 100 | > 100 | > 100 |  | > 100 | > 100 | > 100 | > 100 | > 100 | > 100 |
| Cc1ccc(S(=O)(=O)Oc2nc3nc4ccccc4nc3nc2OS(=O)(=O)c2ccc(C)cc2)cc1 | > 100 | > 100 | > 100 | > 100 |  | > 100 | > 100 | > 100 | > 100 | > 100 | > 100 | > 100 | > 100 | > 100 | > 100 | > 100 | > 100 | > 100 |  |
| COC(=O)/C=C(\C)CC/C=C(\C)CCC(O)C(C)(C)O (configuration not stated) | 41.8 | > 100 | 79.3 | > 100 | 78 | > 100 | 37.8 | > 100 |  | > 100 | > 100 | > 100 | 84 | 42.5 | 67 | 41.5 | 98.5 | > 100 |  |
| Cc1cc(-c2cscn2)c(O)c([N+](=O)[O-])c1 | > 100 | > 100 |  |  | > 100 | > 100 | > 100 | > 100 |  | 99.7 | > 100 | > 100 | > 100 | > 100 | > 100 | > 100 | > 100 | > 100 |  |
| O=c1c2n[nH]nc2nc2n1CC(c1ccccc1)S2 (configuration not stated) | > 100 | > 100 | > 100 | > 100 | > 100 | > 100 | > 100 | > 100 |  | > 100 | > 100 |  | > 100 | > 100 | > 100 | > 100 |  | > 100 | > 100 |
| O=C(N/N=C/c1ccc(Cl)cc1)c1ccccc1Nc1ccccc1C(=O)N/N=C/c1ccc(Cl)cc1 | > 100 | > 100 | > 100 | > 100 | > 100 | > 100 | > 100 | > 100 |  | > 100 | > 100 | > 100 | > 100 | > 100 | > 100 | > 100 |  | > 100 | > 100 |
| Cc1ccc(S(=O)(=O)N/N=C2\CC(C)OC3=C2CCCCCC3)cc1 (configuration not stated) | > 100 | 30.4 |  | 52.4 | 35.1 | 31.2 | > 100 | 38.2 |  | 29.7 | 38.2 | 34.9 |  | 32.3 | 45.2 | 39.5 | 47 | 37.2 | > 100 |
| CCCCCC1=C2C(c3ccc(OC)cc3)=C(N)C(c3ccc(OC)cc3)=C3NC(=O)C(C=C1)C32 (configuration not stated) | > 100 | > 100 | > 100 | > 100 | > 100 | > 100 | > 100 | > 100 | 68 | > 100 | > 100 | > 100 | > 100 | > 100 | > 100 | 53.7 |  | > 100 | > 100 |
| CC(C)(C)OC(=O)NC(CS(=O)(=O)O)C(=O)O (configuration not stated) | > 100 | > 100 | > 100 | > 100 | > 100 | > 100 | > 100 | > 100 | > 100 | > 100 | > 100 | > 100 | > 100 | > 100 | > 100 | > 100 |  | > 100 | > 100 |
| N#C/C(C(=O)Nc1ccc(Cl)cc1)=C(/N)N1CCOCC1 | > 100 | > 100 | > 100 | > 100 | > 100 | > 100 | > 100 | > 100 |  | > 100 | > 100 | > 100 | > 100 | > 100 | > 100 |  |  |  | > 100 |
| COC(=O)CCC(NC(=O)OC(C)(C)C)C(=O)NC(Cc1ccc([N+](=O)[O-])cc1)C(=O)NC(CCC(=O)OC)C(=O)OC (configuration not stated) (Boc-Glu(OMe)-[Phe(4-NO2)]-Glu(OMe)-OMe; configuration not given here) | 36.8 | > 100 |  | 80.9 | > 100 | > 100 | > 100 | > 100 | > 100 | > 100 | > 100 | > 100 |  | > 100 | > 100 | > 100 | > 100 | > 100 | > 100 |
| COc1ccc(Nc2nc3ccc(C(F)(F)F)cc3nc2C(=O)O)cc1 | 63.5 | > 100 | > 100 | 78.6 | > 100 |  | 83.7 | 39.5 |  | 57.2 | > 100 | > 100 | 49.4 | > 100 | > 100 | > 100 |  | > 100 | > 100 |
| O=C1OCCC[C@H]2O[C@@H](COCc3ccccc3)C[C@@H]12 | > 100 |  | > 100 | > 100 | > 100 | > 100 | > 100 |  |  | > 100 | > 100 | > 100 |  | > 100 | > 100 |  | > 100 | > 100 | > 100 |
| C#CC(O)/C=C/C(O)CCCC(O)CC#CC(O)C#CC(O)CCCC(O)/C=C/CCCCCC(=O)CCCCCCCCCCCCCC(O)C(O)C#CC(=O)O (configuration not stated) | 34.2 | > 50 | > 50 | 26 | > 50 | > 50 | > 50 | 36.6 | 18.3 | > 50 | 38.7 | > 50 |  | > 50 | > 50 | > 50 | 33.3 | > 50 | 35 |
| COc1ccc2nc3c([N+](=O)[O-])ccc(NCCN(C)C)c3c(NCCN(C)C)c2c1 | 1.78 | 4.59 |  | 3.51 | 2.73 |  |  | 5.13 |  |  | 1.84 | 4.51 |  | 1.98 | 3.04 | 7.69 |  | > 10 | > 10 |
| O=C1N(CN2CCOCC2)CN(CN2CCOCC2)C(=O)N1Cc1ccc(CN2C(=O)N(CN3CCOCC3)CN(CN3CCOCC3)C2=O)cc1 | > 100 | > 100 | > 100 | > 100 | > 100 | > 100 | > 100 | > 100 | > 100 | > 100 | > 100 | > 100 |  | > 100 | > 100 |  | > 100 | > 100 | > 100 |
| Cc1cccc(C)c1N1C(=O)C2c3[nH]c4ccccc4c3C3CCC(C(C)(C)C)CC3C2C1=O (configuration not stated) | 45.1 | 23.4 | 36.6 |  | 13.7 | 26 |  | 42.6 |  | 37.6 |  | 32 | 38.2 | 20.8 | 37 | 28.2 | 44 | 33.8 |  |
| c1ccc2c3nnc(c2c1)SCCCSc1nnc(c2ccccc12)SCCCS3 | > 100 | > 100 | > 100 | 50.3 | 52.8 | > 100 | > 100 | > 100 | > 100 | > 100 | > 100 | > 100 |  | > 100 | > 100 | 72.1 |  | > 100 | > 100 |
